Values after ≈ are worked out from the molar mass of the structure shown. Values joined by “and” are separate entries in the source; they are usually repeats but may differ in a detail not shown here. Equal values may be shown once.
What was measured:
Microsporum canis = assay: Antidermatophyte plaque growth inhibition; format: cell-based; conditions: for inhibition at 100 µg/mL: M. canis, '+' has no key, read-out: Percent growth inhibition; for IC50: M. canis growth, read-out: IC50
Coxsackie virus B4 = assay: Antiviral activity in HeLa cell cultures (CPE, MTS); format: cell-based; conditions: Enterovirus B; Coxsackie virus B4, HeLa cells
[1] = system: human embryonic lung (HEL) cell cultures
Adeno virus-2 = assay: Antiviral activity in HEL cell cultures (CPE, MTS); format: cell-based; conditions: Adeno virus-2, HEL cells
[2] = system: herpes simplex virus-1 (KOS); assay: Antiviral activity in HEL cell cultures (CPE, MTS); format: cell-based; conditions: Human alphaherpesvirus 1, HEL cells
Trichophyton tonsurans = assay: Antidermatophyte plaque growth inhibition; format: cell-based; conditions: for inhibition at 100 µg/mL: T. tonsurans, '+' has no key, read-out: Percent growth inhibition; for IC50: T. tonsurans growth, read-out: IC50
[3] = system: herpes simplex virus-2 (G); assay: Antiviral activity in HEL cell cultures (CPE, MTS); format: cell-based; conditions: Human alphaherpesvirus 2; Herpes simplex virus-2, HEL cells
[4] = system: human T-lymphocyte cells (CEM); assay: Cell proliferation inhibition
[5] = system: Trichophyton mentagrophytes; assay: Antidermatophyte plaque growth inhibition; format: cell-based; conditions: for inhibition at 100 µg/mL: T. mentagrophytes, '+' has no key, read-out: Percent growth inhibition; for IC50: T. mentagrophytes growth, read-out: IC50
[6] = system: HEK293T (Normal Kidney Epithelial Cells); assay: Cell proliferation inhibition, non-cancer control cells; conditions: Homo sapiens, HEK-293T
[7] = DPPH radical scavenging test; conditions: mean ± SEM; for DPPH (% Inhibition): tested at 1 mg/mL
Epidermophyton floccosum = assay: Antidermatophyte plaque growth inhibition; format: cell-based; conditions: for inhibition at 100 µg/mL: E. floccosum, '+' has no key, read-out: Percent growth inhibition; for IC50: E. floccosum growth, read-out: IC50
HeLa cell cultures = conditions: human
[8] = system: human cervical carcinoma cells (HeLa); assay: Cell proliferation inhibition
[9] = UV filtering parameters of compounds in solution (MeOH, 290-400 nm)
[10] = system: Respiratory syncytial virus; assay: microbe, parasite or virus in culture; format: cell-based; conditions: human respiratory syncytial virus, HeLa cells, read-out: Antiviral EC50
[11] = system: herpes simplex virus-1 TK-KOS ACVr; assay: microbe, parasite or virus in culture; format: cell-based; conditions: Human alphaherpesvirus 1, HEL, read-out: Antiviral EC50
vaccinia virus = assay: microbe, parasite or virus in culture; format: cell-based; conditions: Orthopoxvirus vaccinia, HEL, read-out: Antiviral EC50
[12] = system: vesicular stomatitis virus; assay: microbe, parasite or virus in culture; format: cell-based; conditions: HeLa, read-out: Antiviral EC50
[13] = system: human melanoma cells (SK-Mel 5); assay: Cell proliferation inhibition
Human Coronavirus (229E) = assay: microbe, parasite or virus in culture; format: cell-based; conditions: HEL, read-out: Antiviral EC50
[14] = system: human pancreatic carcinoma cells (Mia Paca-2); assay: Cell proliferation inhibition
Microsporum gypseum = assay: Antidermatophyte plaque growth inhibition; format: cell-based; conditions: Nannizzia gypsea; for inhibition at 100 µg/mL: M. gypseum, '+' has no key, read-out: Percent growth inhibition; for IC50: M. gypseum growth, read-out: IC50
[15] = Ferric reducing antioxidant power (FRAP) test; conditions: mean ± SEM
[16] = system: Candida albicans (ATCC 10231); assay: Anti-Candida albicans broth microdilution MIC
[17] = UV filtering parameters of cosmetic formulation on PMMA plates (modified Diffey-Robson); format: physicochemical
[18] = system: M. gypseum, M. canis, T. mentagrophytes, T. tonsurans and E. floccosum; assay: Antidermatophyte activity, all five dermatophytes taken together; format: cell-based; conditions: for Activity on dermatophytes (in words) / inhibition at 100 µg/mL: 100 µg/mL; for inhibition at 100 µg/mL / IC50: all five dermatophytes; for inhibition at 100 µg/mL: read-out: Percentage of growth inhibition over the five dermatophytes; for IC50: read-out: IC50 range over the five dermatophytes

SMILES: O=C(O)c1ccc2[nH]c(-c3ccc[nH]3)nc2c1 [Compound 13, 2-(1H-pyrrol-2-yl)-1H-benzimidazole-5-carboxylic Acid]
- inhibition at 100 µg/mL (Microsporum canis): 8.66 ± 1.78%
- EC50 (Coxsackie virus B4): > 100 µM
- Cytotoxic concentration [1]: > 100 µM
- EC50 (Adeno virus-2): > 100 µM
- EC50 [2]: > 100 µM
- melting point: > 250 °C
- inhibition at 100 µg/mL (Trichophyton tonsurans): 4.55 ± 1.34%
- EC50 [3]: > 100 µM
- IC50 [4]: > 100 µM
- inhibition at 100 µg/mL [5]: < 0%
- IC50 [6]: > 100 µM
- DPPH (% Inhibition) [7]: 33.00 ± 1.28%
- inhibition at 100 µg/mL (Epidermophyton floccosum): 21.1 ± 2.14%
- Cytotoxic concentration (HeLa cell cultures): > 100 µM
- IC50 [8]: > 100 µM
- SPF [9]: 7.40±0.23
- UVA/UVB [9]: 0.7
- UVAPF [9]: 1.10±0.09
- λc (critical wavelength) [9]: 345 nm
- EC50 [10]: > 100 µM
- EC50 [11]: > 100 µM
- EC50 (vaccinia virus): > 100 µM
- EC50 [12]: > 100 µM
- IC50 [13]: > 100 µM
- EC50 (Human Coronavirus (229E)): > 100 µM
- IC50 [14]: > 100 µM
- inhibition at 100 µg/mL (Microsporum gypseum): 3.74 ± 1.49%
- FRAP [15]: 108.89 ± 2.98 µmolTE/g

SMILES: OC(Cn1cncn1)(Cn1cncn1)c1ccc(F)cc1F [Fluconazole, reference compound]
- IC50 (Microsporum canis): 29.6 ± 1.84 µg/mL (≈ 96.6 µM)
- MIC ([16]; 48 h, tested 0.25-128 µg/mL, '-' = no activity): Neither synthesized compounds nor fluconazole showed activity
- MIC ([16]; Candida albicans, ATCC10231, 24 h): 0.5 µg/mL (≈ 1.63 µM)
- IC50 (Trichophyton tonsurans): 19.4 ± 0.87 µg/mL (≈ 63.4 µM)
- IC50 [5]: 3.53 ± 0.26 µg/mL (≈ 11.5 µM)
- IC50 (Epidermophyton floccosum): 0.08 ± 0.005 µg/mL (≈ 0.261 µM)
- IC50 (Microsporum gypseum): 18.5 ± 1.23 µg/mL (≈ 60.4 µM)

SMILES: c1c[nH]c(-c2nc3ccccc3[nH]2)c1 [Compound 10, 2-(1H-pyrrol-2-yl)-1H-benzimidazole]
- IC50 (Microsporum canis): 1.34 ± 0.02 µg/mL (≈ 7.31 µM)
- inhibition at 100 µg/mL (Microsporum canis): 96.8 ± 3.56%
- EC50 (Coxsackie virus B4): > 100 µM
- Cytotoxic concentration [1]: > 100 µM
- EC50 (Adeno virus-2): > 100 µM
- EC50 [2]: > 100 µM
- melting point: > 250 °C
- IC50 (Trichophyton tonsurans): 0.97 ± 0.06 µg/mL (≈ 5.29 µM)
- inhibition at 100 µg/mL (Trichophyton tonsurans): 96.97 ± 0.62%
- EC50 [3]: > 100 µM
- IC50 [4]: 14 ± 1 µM
- SPF ([17]; 1% in formulation): 2.44
- UVA/UVB ([17]; 1% in formulation): 0.70
- UVAPF ([17]; 1% in formulation): 1.16
- λc ([17]; 1% in formulation): 341 nm
- SPF ([17]; 2% in formulation): 2.72
- UVA/UVB ([17]; 2% in formulation): 0.73
- UVAPF ([17]; 2% in formulation): 1.32
- λc ([17]; 2% in formulation): 357 nm
- SPF ([17]; 3% in formulation): 3.06
- UVA/UVB ([17]; 3% in formulation): 0.75
- UVAPF ([17]; 3% in formulation): 1.54
- λc ([17]; 3% in formulation): 364 nm
- IC50 [5]: 1.38 ± 0.08 µg/mL (≈ 7.53 µM)
- inhibition at 100 µg/mL [5]: 96.3 ± 2.42%
- IC50 [6]: 31 ± 3 µM
- DPPH IC50 [7]: 64.098 µg/mL and 64.10 ± 3.21 µg/mL
- IC50 (Epidermophyton floccosum): 1.07 ± 0.03 µg/mL (≈ 5.84 µM)
- inhibition at 100 µg/mL (Epidermophyton floccosum): 102 ± 4.92%
- Cytotoxic concentration (HeLa cell cultures): > 100 µM
- IC50 [8]: 37 µM
- UVA/UVB [9]: 0.02
- UVAPF [9]: 1.16±0.05
- λc (critical wavelength) [9]: 325 nm
- EC50 [10]: > 100 µM
- EC50 [11]: > 100 µM
- EC50 (vaccinia virus): > 100 µM
- EC50 [12]: > 100 µM
- Activity on dermatophytes (in words) [18]: fungicide activity
- inhibition at 100 µg/mL [18]: ~100%
- IC50 [18]: 0.97 to 3.8 µg/mL (≈ 5.29 to 20.7 µM)
- IC50 [13]: 9.7 ± 1.7 µM
- EC50 (Human Coronavirus (229E)): > 100 µM
- IC50 [14]: 15 ± 9 µM
- IC50 (Microsporum gypseum): 1.53 ± 0.05 µg/mL (≈ 8.35 µM)
- inhibition at 100 µg/mL (Microsporum gypseum): 99.1 ± 1.33%
- FRAP [15]: 1085.57 ± 0.88 µmolTE/g

SMILES: c1csc(-c2nc3ccccc3[nH]2)c1 [Compound 12, 2-(thiophen-2-yl)-1H-benzimidazole]
- IC50 (Microsporum canis): 2.14 ± 0.09 µg/mL (≈ 10.7 µM)
- inhibition at 100 µg/mL (Microsporum canis): 92.9 ± 1.33%
- EC50 (Coxsackie virus B4): > 100 µM
- Cytotoxic concentration [1]: > 100 µM
- EC50 (Adeno virus-2): > 100 µM
- EC50 [2]: > 100 µM
- IC50 (Trichophyton tonsurans): 2.42 ± 0.15 µg/mL (≈ 12.1 µM)
- inhibition at 100 µg/mL (Trichophyton tonsurans): 97 ± 1.34%
- EC50 [3]: > 100 µM
- IC50 [4]: > 100 µM
- SPF ([17]; 1% in formulation): 2.41
- UVA/UVB ([17]; 1% in formulation): 0.71
- UVAPF ([17]; 1% in formulation): 1.16
- λc ([17]; 1% in formulation): 340 nm
- SPF ([17]; 2% in formulation): 2.59
- UVA/UVB ([17]; 2% in formulation): 0.70
- UVAPF ([17]; 2% in formulation): 1.22
- λc ([17]; 2% in formulation): 342 nm
- SPF ([17]; 3% in formulation): 2.79
- UVA/UVB ([17]; 3% in formulation): 0.69
- UVAPF ([17]; 3% in formulation): 1.26
- λc ([17]; 3% in formulation): 344 nm
- IC50 [5]: 1.74 ± 0.11 µg/mL (≈ 8.69 µM)
- inhibition at 100 µg/mL [5]: 98.1 ± 2.76%
- IC50 [6]: > 100 µM
- DPPH (% Inhibition) [7]: 35.05 ± 0.87%
- IC50 (Epidermophyton floccosum): 3.8 ± 0.07 µg/mL (≈ 19 µM)
- inhibition at 100 µg/mL (Epidermophyton floccosum): 94.7 ± 5.45%
- Cytotoxic concentration (HeLa cell cultures): > 100 µM
- IC50 [8]: > 100 µM
- UVA/UVB [9]: 0.37
- UVAPF [9]: 1.49±0.07
- λc (critical wavelength) [9]: 345 nm
- EC50 [10]: > 100 µM
- EC50 [11]: > 100 µM
- EC50 (vaccinia virus): > 100 µM
- EC50 [12]: > 100 µM
- Activity on dermatophytes (in words) [18]: fungicide activity
- inhibition at 100 µg/mL [18]: ~100%
- IC50 [18]: 0.97 to 3.8 µg/mL (≈ 4.84 to 19 µM)
- IC50 [13]: 86 ± 17 µM
- EC50 (Human Coronavirus (229E)): > 100 µM
- IC50 [14]: ≥ 100 µM
- IC50 (Microsporum gypseum): 1.55 ± 0.03 µg/mL (≈ 7.74 µM)
- inhibition at 100 µg/mL (Microsporum gypseum): 100 ± 1.63%
- FRAP [15]: 75.89 ± 5.43 µmolTE/g

SMILES: O=S(=O)(O)c1ccc2[nH]c(-c3ccco3)nc2c1 [Compound 8, 2-(furan-2-yl)-1H-benzimidazole-5-sulfonic Acid]
- inhibition at 100 µg/mL (Microsporum canis): < 0%
- EC50 (Coxsackie virus B4): > 100 µM
- Cytotoxic concentration [1]: > 100 µM
- EC50 (Adeno virus-2): > 100 µM
- EC50 [2]: > 100 µM
- melting point: > 250 °C
- inhibition at 100 µg/mL (Trichophyton tonsurans): < 0%
- EC50 [3]: > 100 µM
- IC50 [4]: > 100 µM
- inhibition at 100 µg/mL [5]: < 0%
- IC50 [6]: > 100 µM
- DPPH (% Inhibition) [7]: 10.96 ± 0.56%
- inhibition at 100 µg/mL (Epidermophyton floccosum): < 0%
- Cytotoxic concentration (HeLa cell cultures): > 100 µM
- IC50 [8]: ≥ 100 µM
- SPF [9]: 10.96±0.54
- UVA/UVB [9]: 0.29
- UVAPF [9]: 1.33±0.05
- λc (critical wavelength) [9]: 342 nm
- EC50 [10]: > 100 µM
- EC50 [11]: > 100 µM
- EC50 (vaccinia virus): > 100 µM
- EC50 [12]: > 100 µM
- IC50 [13]: ≥ 100 µM
- EC50 (Human Coronavirus (229E)): > 100 µM
- IC50 [14]: ≥ 100 µM
- inhibition at 100 µg/mL (Microsporum gypseum): 8 ± 2.44%
- FRAP [15]: <LOQ *

Source: article PMC7570844, “Skin Damages—Structure Activity Relationship of Benzimidazole Derivatives Bearing a 5-Membered Ring System” (Molecules, 2020)
